Experimental data from patent US20250109504A1, “HETEROCYCLIC NON-TRIAZOLE COMPOUNDS AND METHODS FOR INHIBITING CORROSION IN INDUSTRIAL WATER TREATMENT” (CHEMTREAT, INC., priority 2023, published 2025).

Experiments:
[1] = LPR corrosion test of copper coupons in synthetic water with free chlorine (Gamry corrosion cell); settings: for deterioration in corrosion resistance when free chlorine is added: FAC 1 ppm after 1 hr
Description: Several classes of compounds at various concentrations were tested to determine their potential to inhibit corrosion of copper alloy in aqueous systems as shown in Table 1 below.
1 liter samples of synthetic water were each dosed with 5 ppm of a different glucamide compound (A, B, C, D) according to Formula (I) above and 50 ppm of a standard scale inhibitor. Another 1 liter sample of synthetic water was dosed with 4 ppm of tolyltriazole and 50 ppm of the standard scale inhibitor product.
The apparatus used for the corrosion testing was a Gamry Multiport Corrosion Cell and Gamry Reference 600+ potentiostat with multiplexor. Copper coupons (CDA110) were added to the sample cells, and the cells were heated to 50° C. and maintained at this temperature throughout the testing. The cells were continuously stirred at a speed of 350 rpm. A cylindrical working electrode was submerged into the test solutions, and an LPR sweep (linear polarization resistance) was performed every hour for 18 hours. After the one hour mark, 1 ppm of free chlorine was dosed into the corrosion cell.

[2] = Solubility in sodium hydroxide (NaOH); assay type: physicochemical; settings: solubilized in sodium hydroxide (NaOH)
From the text: Moreover, conventional treatment methods involve solubilizing corrosion inhibitors in sodium hydroxide (NaOH). Solubility of benzimidazoles and polymeric acids such as 4,5-imidazoledicarboxylic acid in NaOH is low, i.e., less than 2%. […] These and other issues are addressed by the present disclosure.

Compound	corrosion inhibition properties (corrosion rates, FIG. 1) as compared to the triazole inhibitors ([1]; Example 1, IMDCC 5, 2.5, 1 ppm vs HST 0.5/0.25/0.1 ppm and TTA 0.5 ppm, CDA110, 50° C., entire 18 hour period)	deterioration in corrosion resistance when free chlorine is added ([1]; Example 1, IMDCC 5, 2.5, 1 ppm, CDA110, 50° C.)	corrosion inhibition properties (corrosion rates, FIG. 2) as compared to the triazole inhibitors ([1]; Example 2, IMDCC 1 ppm, CT1 + IMDCC 100 ppm + 1 ppm vs HST 0.5 ppm, CDA110, 50° C., entire 18 hour period)	deterioration in corrosion resistance when free chlorine is added ([1]; Example 2, IMDCC 1 ppm, CT1 + IMDCC 100 ppm + 1 ppm, unlike the CT1 inhibitor)	corrosion inhibition properties (corrosion rates, FIG. 3) as compared to the triazole inhibitors ([1]; Example 3, IMDCC 2.0, 1 ppm, HST + IMDCC 0.10+0.90 to 0.90+0.10 ppm vs HST 1/0.5/0.25 ppm, CDA110, 50° C., entire 18 hour period)	deterioration in corrosion resistance when free chlorine is added ([1]; Example 3, IMDCC 2.0, 1 ppm, HST + IMDCC 0.10+0.90 to 0.90+0.10 ppm)	corrosion inhibition properties (corrosion rates, FIG. 4) as compared to the triazole inhibitors ([1]; Example 4, IMDCC 2.0, 1 ppm, CT2 + IMDCC 50 ppm + 1 ppm, 25 ppm + 2 ppm, CDA110, 50° C., entire 18 hour period)	deterioration in corrosion resistance when free chlorine is added ([1]; Example 4, IMDCC 2.0, 1 ppm, CT2 + IMDCC 50 ppm + 1 ppm, 25 ppm + 2 ppm, unlike the CT2 inhibitor)	Solubility in NaOH [2]
Imidazole dicarboxylate [IMDCC]	superior corrosion inhibition properties	do not exhibit any substantial deterioration	superior corrosion inhibition properties	do not exhibit any substantial deterioration	superior corrosion inhibition properties	do not exhibit any substantial deterioration	superior corrosion inhibition properties	do not exhibit any substantial deterioration	
O=C(O)c1nc[nH]c1C(=O)O [4,5-imidazoledicarboxylic acid]									less than 2%
